Experimental data as given in patent US20170056373A1, “GHRELIN O-ACYLTRANSFERASE INHIBITORS” (SYRACUSE UNIVERSITY, priority 2015, published 2017).
One block for each compound: values may come before it. Ends that are not written are not given here. * marks the point of attachment. acrylodan = CN(C)c1ccc2cc(C(=O)CC*)ccc2c1; Dansyl = CN(C)c1cccc2c(S(=O)(=O)*)cccc12

How the values were obtained:
hGOAT [1] = target: T1, hGOAT (Homo sapiens, UniProt Q96T53); test: in vitro hGOAT activity assay (inhibition of ghrelin peptide octanoylation, HPLC/fluorescence); type: biochemical; settings: for IC50: hGOAT membrane fraction from Sf9 cells, in vitro octanoylation assay
T1 construct: His10 (C); made in house; host or cells: Sf9 insect cells (baculovirus), membranes
T1 sequence (Q96T53 1-435): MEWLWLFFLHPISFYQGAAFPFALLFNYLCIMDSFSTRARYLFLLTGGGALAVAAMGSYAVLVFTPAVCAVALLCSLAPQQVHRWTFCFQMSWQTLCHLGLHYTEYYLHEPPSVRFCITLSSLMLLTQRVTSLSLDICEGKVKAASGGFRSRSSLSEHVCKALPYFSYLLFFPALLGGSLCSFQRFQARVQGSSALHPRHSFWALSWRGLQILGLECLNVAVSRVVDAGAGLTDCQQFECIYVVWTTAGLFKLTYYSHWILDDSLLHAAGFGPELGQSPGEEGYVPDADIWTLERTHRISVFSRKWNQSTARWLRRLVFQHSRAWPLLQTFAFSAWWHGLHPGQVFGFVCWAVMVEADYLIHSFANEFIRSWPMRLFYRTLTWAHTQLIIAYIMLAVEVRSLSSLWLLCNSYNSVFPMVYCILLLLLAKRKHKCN
Protocol: (§1) An assay for human ghrelin O-acyltransferase activity was performed using hGOAT expressed from insect (Sf9) cells using standard baculoviral methods and a fluorescent 6-mer peptide synthesized by a single step reaction followed by high performance liquid chromatography (HPLC) purification. The assay was performed at room temperature using hGOAT membrane protein, octanoyl-CoA, a fluorescent ghrelin peptide, a buffer, and a detergent. Activity may be measure by detecting the presence of any octanoylation of the ghrelin peptide. For example, the presence of octanoylated ghrelin peptide may be confirmed by HPLC or by using a fluorescent system whose fluorescence will increase as a result of octanoylation of the ghrelin peptide.
A library of potential inhibitors was screened using the assay of the present invention. More particularly, membrane fractions from Sf9 cells expressing hGOAT were thawed on ice and homogenized by passing through an 18-gauge needle ten times. Membrane fraction containing ˜50-100 μg membrane protein (determined by Bradford assay) was preincubated for 30 minutes at room temperature with 1 μM MAFP, 500 μM octanoyl CoA, 50 mM HEPES (pH=7.0), and 1 μl Diversity Set compound dissolved in DMSO for a final inhibitor concentration of either 10 or 100 μM for primary screening. Reactions were initiated with the addition of 1.5 μM fluorescent peptide substrate, incubated at room temperature in the dark for 3 hours, then stopped with 50 μl 20% acetic acid in isopropanol. The solutions were clarified by protein precipitation with 16.7 μl 20% trichloroacetic acid, followed by centrifugation (1,000×g, 1 m). The resulting supernatant was analyzed by reverse phase HPLC.
Reactions followed the above procedure, and included inhibitor concentrations of 1, 5, 10, 50, or 100 μM, as well as a DMSO-only vehicle control. Compounds determined to act as hGOAT inhibitors are seen in FIGS. 4 through 6.

mouse isoform of GOAT = target: T2, mouse isoform of GOAT (Mus musculus, UniProt P0C7A3); test: cell-based inhibition of ghrelin octanoylation, acyl ghrelin ELISA in GOAT/preproghrelin transfected HEK293FT cells; settings: stably transfected HEK293FT cells, 24 hours incubation, read-out: cellular IC50, reduction of acyl ghrelin concentrations
T2 construct: expressed in transfected cells; host or cells: HEK293FT, stably transfected with the phPPG-mGOAT plasmid (gift from Dr. Jef Boeke's laboratory)
T2 sequence (P0C7A3 1-435): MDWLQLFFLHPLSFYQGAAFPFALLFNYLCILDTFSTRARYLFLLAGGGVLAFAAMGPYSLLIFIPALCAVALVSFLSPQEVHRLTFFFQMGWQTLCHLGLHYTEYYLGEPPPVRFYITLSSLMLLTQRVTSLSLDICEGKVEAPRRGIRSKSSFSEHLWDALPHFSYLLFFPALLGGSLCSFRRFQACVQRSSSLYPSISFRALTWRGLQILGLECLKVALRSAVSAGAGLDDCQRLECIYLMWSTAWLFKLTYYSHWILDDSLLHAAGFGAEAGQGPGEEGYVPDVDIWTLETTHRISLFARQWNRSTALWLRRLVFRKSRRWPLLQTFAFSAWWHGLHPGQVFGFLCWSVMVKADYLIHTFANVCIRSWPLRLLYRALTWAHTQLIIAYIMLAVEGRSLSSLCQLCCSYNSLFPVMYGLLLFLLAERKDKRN
Protocol: Stably transfected GOAT/Preproghrelin HEK 293FT cells were generated using the phPPG-mGOAT plasmid (a gift from Dr. Jef Boeke's laboratory) containing human preproghrelin (hPPG) and mouse ghrelin O-acyltransferase (mGOAT) connected by an intervening encephalomyocarditis virus internal ribosome entry site (ECMV-IRES) under puromycin selection as previously described. Cells were transfected using Lipofectamine 2000 (Invitrogen) at a 2 μL to 1 μg DNA ratio in 10 cm tissue culture-treated dishes according to manufacturer's protocol. The 293FT-hPPG-mGOAT cells were cultured in DMEM medium (Corning) supplemented with 10% inactivated fetal bovine serum, 1% penicillin/streptomycin, 1 ug/mL puromycin, and 0.01% octanoic acid and routinely passaged 2-3 times per week. A clonal line was chosen through serial dilution into a 96-well plate.
Cell density and number were optimized for detection of acyl ghrelin via ELISA (EMD Millipore Corp). 293FT-hPPG-mGOAT clonal cells were plated in the late afternoon in 24-plates at 2×10^5 cells/well. Cells were incubated overnight at 37° C., 5% CO2 and treated the next morning with inhibitors or vehicle (DMSO) in triplicate. Cells were treated for 24 hours and harvested after medium aspiration using 40 μL/well trypsin-EDTA (0.25%, Corning) containing 5 μM methoxy arachidonyl flourophosphonate (MAFP). […]

hGOAT [2] = target: T1, hGOAT; test: fluorescent ghrelin peptide substrates assayed for activity with hGOAT (HPLC with fluorescence detection); type: biochemical; settings: peptide as substrate for octanoylation by hGOAT
Protocol: With the peptide substrates, the addition of the hydrophobic octanoyl group upon serine acylation at position 3 leads to an increase in retention time in reverse-phase (RP) HPLC. The panel of fluorescent ghrelin peptide substrates was assayed for activity with hGOAT using HPLC coupled with fluorescence detection of the fluorescently labeled peptides. All reactions with hGOAT-His10 membranes were performed in parallel with mock membranes to account for nonspecific peptide modifications.
as §1

Compound: COC(=O)[C@]12CCC(C)(C)C[C@H]1[C@H]1C(=O)C=C3[C@@]4(C)C=C(C#N)C(=O)C(C)(C)[C@@H]4CC[C@@]3(C)[C@]1(C)CC2 [CDDO-Me, methyl 2-cyano-3,12-dioxooleana-1,9(11)dien-28-oate]
inhibitory activity against hGOAT-catalyzed ghrelin octanoylation (in words) (hGOAT [1]; in vitro hGOAT activity assay): exhibits inhibitory activity against hGOAT
IC50 (mouse isoform of GOAT): 0.035 ± 0.01 µM

Compound: CC1(C)CC[C@]2(C(=O)n3ccnc3)CC[C@]3(C)[C@H](C(=O)C=C4[C@@]5(C)C=C(C#N)C(=O)C(C)(C)[C@@H]5CC[C@]43C)[C@@H]2C1 [CDDO-Im, 1[2-cyano-3,12-dioxooleana-1,9-dien-28-oyl]imidazole]
IC50 (hGOAT [1]): 38 ± 6 µM

Compound: AcDan-5: acrylodan-labeled ghrelin mimic peptide substrate, GSSFCAcDanS (SEQ. ID No. 4) (GSSFC(acrylodan)S; ends and bridges not checked)
Active with hGOAT? (hGOAT [2]): yielded the octanoylated peptide and Yes

Results, then the compound that gave them:

Active with hGOAT? (hGOAT [2]): yielded the octanoylated peptide and Yes
Compound: AcDan-6: acrylodan-labeled ghrelin mimic peptide substrate, GSSFLCAcDan (SEQ. ID No. 5) (GSSFLC(acrylodan)-NH2; ends and bridges not checked)

Active with hGOAT? (hGOAT [2]): not modified by hGOAT and No
Compound: AcDan-2: acrylodan-labeled ghrelin mimic peptide substrate, GCAcDanSFLS (SEQ. ID No. 3) (GC(acrylodan)SFLS; ends and bridges not checked)

IC50 (hGOAT [1]): 8 ± 4 µM
IC50 (mouse isoform of GOAT): 0.32 ± 0.15 µM
Compound: CCNC(=O)[C@]12CCC(C)(C)C[C@H]1[C@H]1C(=O)C=C3[C@@]4(C)C=C(C#N)C(=O)C(C)(C)[C@@H]4CC[C@@]3(C)[C@]1(C)CC2 [CDDO-EA]

Active with hGOAT? (hGOAT [2]): not modified by hGOAT and No
Compound: 1-Dansyl: fluorescent ghrelin mimic peptide substrate, Dansyl-GSSFLS (SEQ. ID No. 2) (ends and bridges not checked)
